Results from patent publication US12570675B2, “Boronic acid compounds” (LG CHEM, LTD., priority 2020, dated 2026).
pIC50: −log10 of the molar value.

Columns and labels:
[1] = biological target: Proteasome chymotrypsin-like activity (S26 protein from RPMI8226 cells) (Homo sapiens, UniProt P28074); type: biochemical; conditions: S26 protein from RPMI8226 cell extract 2 ug/well, substrate 20 uM, 37° C., 90 minutes; read-out: Proteasome chymotrypsin-like activity inhibition IC50
Outline: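 Fluorogenic AMC substrates (20 uM final) report chymotrypsin-like (Suc-Leu-Leu-Val-Tyr-AMC) or caspase-like (Z-Leu-Leu-Glu-AMC) cleavage by RPMI8226-derived S26 protein, 2 ug/well, pH 8.0 Tris lysate.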

[2] = biological target: Proteasome caspase-like activity (S26 protein from RPMI8226 cells) (Homo sapiens (Human), UniProt P28072); test: Proteasome caspase-like activity inhibition (Z-Leu-Leu-Glu-AMC fluorogenic substrate, RPMI8226 cell extract); type: biochemical; conditions: S26 protein from RPMI8226 cell extract 2 ug/well, substrate 20 uM, 37° C., 90 minutes
Proteasome caspase-like activity (S26 protein from RPMI8226 cells), sequence (P28072 whole entry): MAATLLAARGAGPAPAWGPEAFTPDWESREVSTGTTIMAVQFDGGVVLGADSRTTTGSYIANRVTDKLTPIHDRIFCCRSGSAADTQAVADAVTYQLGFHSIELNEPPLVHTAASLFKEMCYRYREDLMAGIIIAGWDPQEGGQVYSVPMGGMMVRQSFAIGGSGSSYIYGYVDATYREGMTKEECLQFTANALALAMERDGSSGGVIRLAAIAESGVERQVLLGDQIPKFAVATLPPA
Procedure: The abilities to inhibit the proteasome activity of the compounds described in the Examples of the present invention and boronic acid drugs were evaluated as follows.
RPMI8226 cells, which is a multiple myeloma cell line, were cultured and then separated by a centrifuge, and washed twice with phosphate buffered saline (PBS). 20 mM of a tris-HCl (pH 8.0) buffer solution was added to the washed cells, and the cells were disrupted by a homogenizer and centrifuged to obtain S26 protein from the supernatant. Suc-Leu-Leu-Val-Tyr-AMC, for a fluorogenic substrate for the chymotrypsin-like activity of the proteasome, and Z-Leu-Leu-Glu-AMC, for a fluorogenic substrate for the caspase-like activity, were purchased from Calbiochem, EMD Millipore and used. Into each well of a 96-well plate (opaque, black round bottom), 20 ul of the S26 protein (final RPMI8226 cell extract concentration: 2 ug/well), 10 ul of S26 proteasome inhibitor serially diluted from 10 uM (final DMSO concentration: 0.5%), and 20 ul of the fluorogenic substrate for the proteasome chymotrypsin-like or caspase-like activity (final concentration: 20 uM) were added and mixed and allowed to react in a 37° C. incubator for 90 minutes. The fluorescence of the fluorogenic substrate was measured by FlexStation II Fluorometer (Molecular Devices). The fluorescence inhibited by the compound diluted at each concentration was measured as the relative percentage value for the amount obtained from the treatment only with the S26 protein and the fluorogenic substrate. IC50 (inhibitory concentration 50) was expressed in terms of a concentration that inhibits 50% of the maximum fluorescence induced by the fluorogenic substrate.

Proteasome chymotrypsin-like activity (S26 protein from RPMI8226 cells), sequence (P28074 60-263 limits assumed): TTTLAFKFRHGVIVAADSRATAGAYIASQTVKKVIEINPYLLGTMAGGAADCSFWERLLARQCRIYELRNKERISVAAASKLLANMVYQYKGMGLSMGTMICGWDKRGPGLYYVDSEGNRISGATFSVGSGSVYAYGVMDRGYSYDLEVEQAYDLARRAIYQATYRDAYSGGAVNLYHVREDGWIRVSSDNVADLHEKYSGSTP

Structure (SMILES)	pIC50 [1]	pIC50 [2]
Cc1nc(COCC2=NOC(Cc3ccccc3)(C(=O)N[C@@H](CC(C)C)B(O)O)C2)cs1 (stereo partly drawn) [Example 46, ((1R)-1-(5-benzyl-3-(((2-methylthiazol-4-yl)methoxy)methyl)-4,5-dihydroisoxazol-5-carboxamido)-3-methylbutyl)boronic acid]	> 8.00	< 6.60
Cc1cccc(COCC2=NOC(Cc3ccccc3)(C(=O)N[C@@H](CC(C)C)B(O)O)C2)n1 (stereo partly drawn) [Example 47, ((1R)-1-(5-benzyl-3-(((6-methylpyridin-2-yl)methoxy)methyl)-4,5-dihydroisoxazol-5-carboxamido)-3-methylbutyl)boronic acid]	> 8.00	< 6.60
Cc1cnc(COCC2=NOC(Cc3ccccc3)(C(=O)N[C@@H](CC(C)C)B(O)O)C2)cn1 (stereo partly drawn) [Example 48, ((1R)-1-(5-benzyl-3-(((5-methylpyrazin-2-yl)methoxy)methyl)-4,5-dihydroisoxazol-5-carboxamido)-3-methylbutyl)boronic acid]	> 7.60	< 6.60
CC(C)C[C@H](NC(=O)C1(Cc2ccccc2)CC(COCc2nccc3ccccc23)=NO1)B(O)O (stereo partly drawn) [Example 49, ((1R)-1-(5-benzyl-3-((isoquinolin-1-ylmethoxy)methyl)-4,5-dihydroisoxazol-5-carboxamido)-3-methylbutyl)boronic acid]	> 8.00	< 6.00
Cc1nc(C)c(COCC2=NOC(Cc3ccccc3)(C(=O)N[C@@H](CC(C)C)B(O)O)C2)s1 (stereo partly drawn) [Example 51, ((1R)-1-(5-benzyl-3-(((2,4-dimethylthiazol-5-yl)methoxy)methyl)-4,5-dihydroisoxazol-5-carboxamido)-3-methylbutyl)boronic acid]	> 8.00	< 6.30
CC(C)C[C@H](NC(=O)C1CC(CNC(=O)c2ccccc2)=NO1)B(O)O (stereo partly drawn) [Example 59, ((1R)-1-(3-(benzamidomethyl)-4,5-dihydroisoxazol-5-carboxamido)-3-methylbutyl)boronic acid]	> 7.00	< 6.30
CC(C)C[C@H](NC(=O)C1CC(CNC(=O)c2nccc3ccccc23)=NO1)B(O)O (stereo partly drawn) [Example 61, ((1R)-1-(3-((isoquinolin-1-carboxamido)methyl)-4,5-dihydroisoxazol-5-carboxamido)-3-methylbutyl)boronic acid]	> 8.00	< 6.30
CC(C)C[C@H](NC(=O)C1CC(CNC(=O)c2cccc3c2CCCC3)=NO1)B(O)O (stereo partly drawn) [Example 63, ((1R)-3-methyl-1-(3-((5,6,7,8-tetrahydronaphthalen-1-carboxamido)methyl)-4,5-dihydroisoxazol-5-carboxamido)butyl)boronic acid]	> 8.00	< 6.30
CC(C)C[C@H](NC(=O)C1CC(CNC(=O)c2cccc3ccccc23)=NO1)B(O)O (stereo partly drawn) [Example 64, ((1R)-1-(3-((1-naphthamido)methyl)-4,5-dihydroisoxazol-5-carboxamido)-3-methylbutyl)boronic acid]	> 8.00	< 6.60
CC(C)C[C@H](NC(=O)C1CC(CNC(=O)c2cc(Cl)ccc2Cl)=NO1)B(O)O (stereo partly drawn) [Example 68, ((1R)-1-(3-((2,5-dichlorobenzamido)methyl)-4,5-dihydroisoxazol-5-carboxamido)-3-methylbutyl)boronic acid]	> 8.00	< 6.30
CC(C)C[C@H](NC(=O)C1CC(CNC(=O)c2cccc(Oc3ccccc3)c2)=NO1)B(O)O (stereo partly drawn) [Example 71, ((1R)-3-methyl-1-(3-((3-phenoxybenzamido)methyl)-4,5-dihydroisoxazol-5-carboxamido)butyl)boronic acid]	> 7.60	< 6.60
CC(C)C[C@H](NC(=O)C1CC([C@@H](NC(=O)c2cc(Cl)ccc2Cl)C(C)C)=NO1)B(O)O (stereo partly drawn) [Example 72, ((1R)-1-(3-((S)-1-(2,5-dichlorobenzamido)-2-methylpropyl)-4,5-dihydroisoxazol-5-carboxamido)-3-methylbutyl)boronic acid]	> 8.00	< 7.00
CC(C)C[C@H](NC(=O)C1CC([C@H](CC(C)C)NC(=O)c2nccc3ccccc23)=NO1)B(O)O (stereo partly drawn) [Example 73, ((1R)-1-(3-((S)-1-(isoquinolin-1-carboxamido)-3-methylbutyl)-4,5-dihydroisoxazol-5-carboxamido)-3-methylbutyl)boronic acid]	> 7.60	< 7.00
CC(C)C[C@H](NC(=O)C1CC([C@H](CC(C)C)NC(=O)c2cc(Cl)ccc2Cl)=NO1)B(O)O (stereo partly drawn) [Example 74, ((1R)-1-(3-((S)-1-(2,5-dichlorobenzamido)-3-methylbutyl)-4,5-dihydroisoxazol-5-carboxamido)-3-methylbutyl)boronic acid]	> 7.60	< 6.30
Cc1ccc(F)cc1C(=O)NCC1=NOC(C(=O)N[C@@H](CC(C)C)B(O)O)C1 (stereo partly drawn) [Example 82, ((1R)-1-(3-((5-fluoro-2-methylbenzamido)methyl)-4,5-dihydroisoxazol-5-carboxamido)-3-methylbutyl)boronic acid]	> 7.30	< 6.30
CC(C)C[C@H](NC(=O)C1(Cc2ccccc2)CC(CNC(=O)c2nccc3ccccc23)=NO1)B(O)O (stereo partly drawn) [Example 84, ((1R)-1-(5-benzyl-3-((isoquinolin-1-carboxamido)methyl)-4,5-dihydroisoxazol-5-carboxamido)-3-methylbutyl)boronic acid]	> 8.00	< 6.00
CC(C)C[C@H](NC(=O)C1(Cc2ccccc2)CC(CNC(=O)c2cc(Cl)ccc2Cl)=NO1)B(O)O (stereo partly drawn) [Example 85, ((1R)-1-(5-benzyl-3-((2,5-dichlorobenzamido)methyl)-4,5-dihydroisoxazol-5-carboxamido)-3-methylbutyl)boronic acid]	> 8.00	< 6.00
CC(C)C[C@H](NC(=O)C1(C)CC(CNC(=O)c2cc(Cl)ccc2Cl)=NO1)B(O)O (stereo partly drawn) [Example 86, ((1R)-1-(3-((2,5-dichlorobenzamido)methyl)-5-methyl-4,5-dihydroisoxazol-5-carboxamido)-3-methylbutyl)boronic acid]	> 7.30	< 5.60
CCC1(C(=O)N[C@@H](CC(C)C)B(O)O)CC(CNC(=O)c2cc(Cl)ccc2Cl)=NO1 (stereo partly drawn) [Example 87, ((1R)-1-(3-((2,5-dichlorobenzamido)methyl)-5-ethyl-4,5-dihydroisoxazol-5-carboxamido)-3-methylbutyl)boronic acid]	> 7.30	< 5.60
CCCC1(C(=O)N[C@@H](CC(C)C)B(O)O)CC(CNC(=O)c2cc(Cl)ccc2Cl)=NO1 (stereo partly drawn) [Example 88, ((1R)-1-(3-((2,5-dichlorobenzamido)methyl)-5-propyl-4,5-dihydroisoxazol-5-carboxamido)-3-methylbutyl)boronic acid]	> 7.60	< 5.60
CC(C)C[C@H](NC(=O)C1(Cc2ccccc2)CC(CNC(=O)c2cccc3ccccc23)=NO1)B(O)O (stereo partly drawn) [Example 92, ((1R)-1-(3-((1-naphthamido)methyl)-5-benzyl-4,5-dihydroisoxazol-5-carboxamido)-3-methylbutyl)boronic acid]	> 8.00	< 6.30
CC(C)C[C@H](NC(=O)CNC(=O)c1cc(Cl)ccc1Cl)B(O)O [ixazomib]	–	8.15
